Holding throughout (type): in vivo
The test system of assay [1] is T. mentagrophytes ATCC 24953. In words: Hair root invasion test (mycological evaluation), T. mentagrophytes dermatophytosis guinea pig model, Example 1. To be noted: evaluated study day 10, relative to vehicle control. How it is done:
(§1) A request was made to the Animal Resource Center (ARC) at Case Western Reserve University to order the required number of male albino Harlan-Sprague-Dawley Guinea-Pigs (San Diego, Calif.) with a body weight of 450-500 g. Animals were allowed to acclimate for a minimum of 5 days prior to use. Environmental controls for the animal room were set to maintain a temperature of 16 to 22° C., a relative humidity of 30-70%, and a 12:12 light-dark cycle.
(§2) T. mentagrophytes ATCC 24953 was used as the infecting fungus. This strain was selected because it can cause skin infection and results in inflammatory reaction.
(§3) T. mentagrophytes (from frozen stock) was sub-cultured on Potato Dextrose Agar plates and incubated at 30° C. for 5-7 days. The colonies were scraped from the plates using sterile normal saline (NaCl 0.85%) solution. After washing for three times with sterile saline the conidia were re-suspended in the same solution. Ten-fold dilutions of conidia suspension were prepared and counted using a hemacytometer. Working suspension of conidia was prepared at a final concentration of 1×10^7 Colony Forming Units (CFUs)/100 μL in normal saline.
(§4) Each animal was anesthetized with a cocktail of xylazine and ketamine: 0.2 mL intramuscularly. Using an electric shaver, hair was clipped on left side of the guinea pig back. A closer shave was done with a disposable razor. Using a stencil, a square of 2.5 cm×2.5 cm was marked. The marked skin area was abraded with sterile fine grit sandpaper. A cell suspension containing 1×10^7 conidia in 100 μL was applied and rubbed thoroughly on the abraded skin.
(§5) Beginning two hours post inoculation, animals were treated subcutaneously (SQ) for CD101 and orally (PO) terbinafine once daily for a period of nine days, or once a week on days 1 and 8.
(§6) Study Day 1: Infected the animals with T. mentagrophytes and begin treatments.
(§7) Study Day 9 (treatment day 9): End treatments.
(§8) Study Day 10: Clinical evaluation of the four quadrants in the marked area was done. Hair samples were obtained from each quadrant (10 per quadrant). Hairs were planted in Potato Dextrose Agar, and incubated for 48 h for mycological evaluation. Procedures for clinical and mycological evaluations are described below.
(§9) CD101 was administered SQ in 0.3 mL, while the terbinafine was given orally in 0.3 mL. Vehicle treated group was also included.
Hair samples were removed with a sterile forceps from four quadrants. Ten hair samples from each quadrant were inoculated onto the corresponding quadrant on the Potato Dextrose agar plate and incubated at 30° C. for 2 days. The fungal growth at the hair root was examined under a stereomicroscope. The effectiveness of a compound in reducing the number of mycologically positive hair sample per treated group is expressed as percentage relative to the vehicle control group of animals using the following formula:
where, T=Positive hair in the test group, K=Positive hair in the Untreated control.

For assay [2], the system named is T. mentagrophytes. In words: Clinical evaluation of infected skin, T. mentagrophytes dermatophytosis guinea pig model, different doses once weekly, Example 2. To be noted: 10 mg/kg PO days 1 and 8, evaluated study day 12, relative to vehicle control. How it is done: (§10) Procedures for animal care and use, preparation of standard inoculum, and infection of the animals were carried out following the same steps as described in Example 1.
(§11) Infected guinea pigs were randomized into the following (1)-(5) groups (10 per group) (see Table 4): (1) a vehicle control (water+mannitol); (2) terbinafine 10 mg/kg PO days 1 and 8, as a positive control; (3) CD101 10 mg/kg SQ days 1 and 8; (4) CD101 20 mg/kg SQ days 1 and 8; and (5) CD101 40 mg/kg SQ days 1 and 8.
(§12) Animals were treated with CD101 SQ or PO (for terbinafine) once a week on days 1 and 8.
(§13) Study Day 1: Infect the animals with T. mentagrophytes and begin treatments.
(§14) Study Day 8: Last treatment.
(§15) Study Day 12: Clinical evaluation of the four quadrants in the marked area is done. Hair samples were obtained from each quadrant. Hairs (10 per quadrant) were planted in Potato Dextrose Agar, and incubated for 48 h for mycological evaluation. Procedures for clinical and mycological evaluations are described below.
(§16) The compounds was administered SQ or PO (0.3 mL/kg […]).
(§17) Clinical assessment of local changes of the infected skin area was scored as follows:
(§18) 1=Few slightly erythematous places on the skin
(§19) 2=Well-defined redness, swelling with bristling hairs.
(§20) 3=Large areas or marked redness incrustation, scaling, bald patches, ulcerated in places.
(§21) 4=Partial damage to the integument and loss of hair
(§22) 5=Extensive damage to the integument and complete loss of hair at the site of infection.
Any other local skin reactions were noted. The assessment of clinical evaluation in the change of scores per treatment group was expressed as percentage relative to the untreated control group of animals using the following formula:
where T=Scores in the test group. K=Scores in the untreated control

In assay [3] the test system is T. mentagrophytes ATCC 24953. As to the kind of experiment: Clinical evaluation of infected skin, T. mentagrophytes dermatophytosis guinea pig model, Example 1. Particulars: evaluated study day 10, relative to vehicle control. How it is done:
as §1, §2, §3, §4, §5, §6, §7, §8, §9, §17, §18, §19, §20, §21, §22
Any other local skin reactions were noted. The assessment of clinical evaluation in the change of scores per treatment group is expressed as percentage relative to the vehicle control group of animals using the following formula:
where, T=Scores in the test group. K=Scores in the untreated control

Assay [4] deals with T. mentagrophytes. As to the kind of experiment: Hair root invasion test (mycological evaluation), T. mentagrophytes dermatophytosis guinea pig model, different doses once weekly, Example 2. To be noted: 10 mg/kg PO days 1 and 8, evaluated study day 12, relative to vehicle control. Here is the method: as §10, §11, §12, §13, §14, §15, §16
Hair samples were removed with sterile forceps from four quadrants. Ten hair samples from each quadrant were inoculated onto the corresponding quadrant on the Potato Dextrose agar plate and incubated at 30° C. for 2 days. The fungal growth at the hair root was examined under a stereomicroscope. The effectiveness of a compound in reducing the number of mycologically positive hair sample per treated group was expressed as percentage relative to the untreated control group of animals using the following formula:
where T=Positive hair in the test group, K=Positive hair in the Untreated control.

Setting [5] is: 10 mg/kg PO daily for nine days.
[6] abbreviates: 10 mg/kg PO daily for nine days, listed as terbinafine.
[7] abbreviates: 10 mg/kg PO once a week (days 1 and 8).
Setting [8] is: 10 mg/kg PO once a week (days 1 and 8), listed as terbinafine.

These results are taken from patent US20190374601A1, “METHODS FOR TREATING FUNGAL INFECTIONS” (priority 2017, published 2019).

Each structure is given as a SMILES string. Marks after values point to notes of the source that are not given here.

Consider `CN(C/C=C/C#CC(C)(C)C)Cc1cccc2ccccc12` [Terbinafine, terbinafine, reference compound], for which the “Percent Efficacy Mycological” value is on record as 91.6* % in assay [1] (setting [5]); 91.6% in assay [1] (setting [6]); 83.1* % in assay [1] (setting [7]); 83.1% in assay [1] (setting [8]); 54.2* % with T. mentagrophytes [4]; 54.2% in the assay with T. mentagrophytes [4] (listed as terbinafine). The “Percent Efficacy Clinical” value in the assay with T. mentagrophytes [2] is on record as 76.8* %; in the assay on T. mentagrophytes [2] (listed as terbinafine), 76.8%; in assay [3] (setting [5]), 78.7* %; in assay [3] (setting [6]), 78.7%; in assay [3] (setting [7]) it was 60.6* %; in assay [3] (setting [8]) it was 60.6%.
